Results taken from PubChem BioAssay AID651581 (Sanford-Burnham Center for Chemical Genomics, 2012).
Active and inactive are the calls of the source. The rule behind the calls is not given here.

Legend:
[1] = target: Hypoxia-inducible factor 1-alpha (Homo sapiens) (UniProt Q16665); assay: HIF-2a and HIF-1a reporter inhibition panel, dose response, selectivity assay for HIF-2a inhibitor project, cell-based, luminescence (AID 651581); settings: HIF-1a
[2] = target: Endothelial PAS domain-containing protein 1 (Homo sapiens) (UniProt Q99814); assay: as above

Hypoxia-inducible factor 1-alpha (Homo sapiens), sequence (Q16665 whole entry, looked up, the tested form may be a part): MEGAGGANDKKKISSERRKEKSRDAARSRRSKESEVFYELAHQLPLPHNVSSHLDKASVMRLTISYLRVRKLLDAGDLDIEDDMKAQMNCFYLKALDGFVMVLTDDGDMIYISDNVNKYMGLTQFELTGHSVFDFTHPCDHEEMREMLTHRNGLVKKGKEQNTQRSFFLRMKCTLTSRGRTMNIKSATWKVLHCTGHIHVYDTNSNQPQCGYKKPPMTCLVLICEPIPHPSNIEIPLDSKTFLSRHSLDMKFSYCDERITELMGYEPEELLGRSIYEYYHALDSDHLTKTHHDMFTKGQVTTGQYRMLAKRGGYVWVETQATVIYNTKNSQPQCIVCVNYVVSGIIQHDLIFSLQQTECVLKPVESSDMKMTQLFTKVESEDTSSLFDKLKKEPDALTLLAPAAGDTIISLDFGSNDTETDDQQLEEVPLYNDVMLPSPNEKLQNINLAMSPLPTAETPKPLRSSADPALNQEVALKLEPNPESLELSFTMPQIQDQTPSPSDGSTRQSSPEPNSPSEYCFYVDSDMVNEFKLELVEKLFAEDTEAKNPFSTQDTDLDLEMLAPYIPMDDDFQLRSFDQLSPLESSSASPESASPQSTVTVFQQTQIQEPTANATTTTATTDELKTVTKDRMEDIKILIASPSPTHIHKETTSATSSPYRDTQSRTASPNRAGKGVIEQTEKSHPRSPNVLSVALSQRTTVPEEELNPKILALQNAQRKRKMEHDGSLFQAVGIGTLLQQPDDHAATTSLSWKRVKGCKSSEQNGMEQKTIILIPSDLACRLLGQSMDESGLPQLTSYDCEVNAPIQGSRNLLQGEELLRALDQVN

| Structure (SMILES) | IC50 ([1]; mean of runs) | IC50 ([1]; run 1) | IC50 ([1]; run 2) | IC50 ([2]; HIF-2a PANC, mean of runs) | IC50 ([2]; HIF-2a PANC, run 1) | IC50 ([2]; HIF-2a PANC, run 2) | IC50 ([2]; HIF-2a, mean of runs) | IC50 ([2]; HIF-2a, run 1) | IC50 ([2]; HIF-2a, run 2) |
| --- | --- | --- | --- | --- | --- | --- | --- | --- | --- |
| COc1ccc(OCc2cccc(C(=O)Nc3cc(C)on3)c2)cc1 | – | > 99 µM | > 99 µM | – | > 99 µM | < 30 µM | < 30 µM (inactive) | < 30 µM | < 30 µM |
| CC(=O)Nc1ccc(OS(=O)(=O)c2c(C)cc(C)cc2C)cc1 | 64.6 µM | 80 µM | 49.2 µM | > 99 µM (inactive) | > 99 µM | > 99 µM | inactive | 12.5 µM | 10.9 µM |
| Cc1ccc(/C=N/Nc2cccc(C(=O)O)c2)s1 | > 99 µM (inactive) | > 99 µM | > 99 µM | – | > 99 µM | > 99 µM | – | < 30 µM | > 99 µM |
| CC(C)COc1ccc(C(=S)N2CCCC2)cc1 | – | > 99 µM | > 99 µM | 14.5 µM | 13.6 µM | 15.5 µM | 4.91 µM | 4.41 µM | 5.42 µM |

The next molecules have a lower IC50 ([1]; run 1) than those just listed; values first:

| IC50 ([1]; mean of runs) | IC50 ([1]; run 1) | IC50 ([1]; run 2) | IC50 ([2]; HIF-2a PANC, mean of runs) | IC50 ([2]; HIF-2a PANC, run 1) | IC50 ([2]; HIF-2a PANC, run 2) | IC50 ([2]; HIF-2a, mean of runs) | IC50 ([2]; HIF-2a, run 1) | IC50 ([2]; HIF-2a, run 2) | Structure (SMILES) |
| --- | --- | --- | --- | --- | --- | --- | --- | --- | --- |
| 10.5 µM | 3.9 µM | 17 µM | inactive | 7.09 µM | 65.6 µM | 1.05 µM | 1.28 µM | 0.826 µM | Cc1nc(SCc2cccc(C(=O)O)c2)nc2c1CCCC2 |
| 18.6 µM | 19.2 µM | 18 µM | inactive | 41.1 µM | 11.9 µM | 4.38 µM | 4.45 µM | 4.31 µM | Cc1nc2cc(-c3cccc(F)c3)nn2c(C)c1CCC(=O)NC(C)c1ccc2c(c1)OCCO2 (stereo not given) |
| inactive | 24.8 µM | 21.7 µM | – | > 99 µM | < 30 µM | < 30 µM (inactive) | < 30 µM | < 30 µM | C/C(=N/NC(=O)c1cc(C2CC2)[nH]n1)c1cccs1 |
| inactive | 32.6 µM | 26.2 µM | > 99 µM (inactive) | > 99 µM | > 99 µM | inactive | 13.9 µM | 14.2 µM | CC(=O)/C=C1/C(=O)Nc2ccccc21 |
| inactive | 14.9 µM | 15.9 µM | 3.59 µM | 3.76 µM | 3.42 µM | 5.89 µM | 5.61 µM | 6.17 µM | Cc1ccc(Oc2ccc(OCC(=O)Nc3ccncc3)cc2)cc1 |
